# Article PMC8426299, “Effect of severe renal impairment on the pharmacokinetics of brigatinib” (Investigational New Drugs, 2021)
# Entries after “also recorded” stand apart in the source; their conditions may differ. Read-outs that look alike come from different tables or passages of the source.
# Key:
# [1] = design: method as in PMID 32816246; conditions: eGFR 30 to < 90 mL/min/1.73 m^2; population PK analyses; cited from earlier work
# [2] = system: cytochrome P450 (CYP) 3A4; design: method as in ref 5, 11 = [5]; 5. Alunbrig brigatinib [summary of product characteristics] (2020) Takeda Pharmaceutical Company Limited. https://www.alunbrig.com/assets/pi.pdf . Accessed 9 Mar 2021 || [11]; PMID 31287236; doi:10.1002/cpdd.723; 11. Tugnait M Gupta N Hanley MJ Sonnichsen D Kerstein D Dorer DJ Venkatakrishnan K Narasimhan N Effects of strong CYP2C8 or CYP3A inhibition and CYP3A induction on the pharmacokinetics of brigatinib; conditions: in vitro; cited from earlier work
# [3] = cited from earlier work
# 2C8 = system: 2C8; design: method as in ref 5, 11 = [5]; 5. Alunbrig brigatinib [summary of product characteristics] (2020) Takeda Pharmaceutical Company Limited. https://www.alunbrig.com/assets/pi.pdf . Accessed 9 Mar 2021 || [11]; PMID 31287236; doi:10.1002/cpdd.723; 11. Tugnait M Gupta N Hanley MJ Sonnichsen D Kerstein D Dorer DJ Venkatakrishnan K Narasimhan N Effects of strong CYP2C8 or CYP3A inhibition and CYP3A induction on the pharmacokinetics of brigatinib; conditions: in vitro; cited from earlier work
# ALK + NSCLC = system: ALK + NSCLC; design: method as in PMID 32780660; conditions: cited from earlier work
# [4] = Urinary pharmacokinetics after single oral dose of brigatinib 90 mg; type: in vivo, human; conditions: for CL renal: human, oral, 90 mg; for CL renal / Ae0–168, Range / Ae0–168, amount of brigatinib excreted from time zero to 168 hours, mean (SD) / Fe0–168, Range: urine
# Protocol: Blood samples were collected before brigatinib administration (predose) and at 0.5, 1, 1.5, 2, 2.5, 3, 4, 6, 8, 12, 24, 36, 48, 60, 72, 96, 120, 144, and 168 h after brigatinib administration to determine plasma brigatinib concentrations. Urine was collected predose and during intervals (0–8, 8–12, 12–24, 24–48, 48–72, 72–96, 96–120, and 120–168 h) after brigatinib administration to determine urine brigatinib concentrations. Urine samples were subsequently diluted 50:50 (v:v) urine:isopropanol at the clinical site.
# Plasma and urine samples were analyzed by Charles River Laboratories, Inc. (Worcester, MA, USA) by LC-MS/MS, as previously reported. Plasma samples were analyzed using a dual-range assay with a lower limit of quantitation of 0.100 ng/mL and an upper limit of 2500 ng/mL [11]. Urine samples were analyzed using a single-range assay with a lower limit of quantitation of 25.0 ng/mL and upper limit of 2500 ng/mL [11].
# Individual participant plasma concentration-time profiles were analyzed via noncompartmental analysis methods using Phoenix WinNonlin (version 6.4) to estimate PK parameters. Plasma PK parameters calculated for brigatinib included maximum observed plasma concentration (Cmax); Tmax; area under the plasma concentration-time curve from time zero to the time of the last measurable concentration (AUC0 − last); AUC from time zero to infinity (AUC0−∞); terminal elimination half-life (t1/2); apparent oral clearance (CL/F); and apparent volume of distribution (V/F). The fraction of unbound brigatinib in plasma was determined using the following formula: % free (unbound) = [free brigatinib concentration measured in buffer after RED]/[total concentration measured in plasma] X 100. Unbound brigatinib plasma PK parameters (except unbound CL/F and V/F, which were calculated as total CL/F or total V/F divided by the overall mean fraction unbound) were calculated using the following formula: unbound PK parameter = (parameter based on total concentrations) x (individual participant’s overall mean fraction unbound value). Urinary PK parameters included the amount of brigatinib excreted from time zero to time t (Ae0 − t,), fraction of the dose excreted (%) from time zero to time t (Fe0 − t), and renal clearance (CLR).
# [5] = design: method as in PMID 30570839; conditions: cited from earlier work
# [6] = system: ALK-positive non–small cell lung cancer (NSCLC); design: method as in PMID 31756496; conditions: cited from earlier work
# [7] = design: method as in earlier work; conditions: cited from earlier work
# [8] = Safety assessment (adverse events, laboratory, ECG, vital signs) in the single-dose study; type: in vivo, human; conditions: single 90 mg dose
# Protocol: Adverse events were recorded throughout the study. Physical examinations were performed at screening and on days − 1 and 8; height, weight, and BMI were collected only at screening. Vital signs were recorded at screening; on day − 1; at 0.5, 1, 2, 3, 4, 6, 8, 12, 24, 36, 48, 60, 72, 96, 120, and 144 h after brigatinib administration; and on day 8. Electrocardiograms were conducted at screening, day − 1, before the brigatinib dose, 3 and 48 h after brigatinib, and on day 8. Clinical laboratory evaluations were performed at screening and on days − 1 and 8.
# Descriptive statistics, including number of observations (n), arithmetic mean, standard deviation (SD), coefficient of variation (CV%), median, minimum, and maximum, were calculated for each time point for brigatinib plasma concentrations in each study group. Arithmetic mean; SD; CV%; median, minimum, and maximum values; and geometric mean and geometric CV% were calculated for all PK parameters except Tmax, which was reported as median (minimum, maximum). Statistical comparisons of brigatinib PK parameters (unbound) were made using a one-factor analysis of variance, and 90 % CIs for the geometric mean ratios (GMRs) were calculated for the comparison of Cmax, AUC0 − last, and AUC0−∞ between study groups. Descriptive statistics were used to present safety outcomes, including number and percentage of participants with adverse events.
# [9] = brigatinib vs crizotinib, P < 0.0001
# [10] = NSCLC progressed on crizotinib, 180 mg qd with seven-day lead-in at 90 mg, median follow-up 24 months
# [11] = patients with baseline brain metastases
structure (smiles),measurement,setting,value
COc1cc(N2CCC(N3CCN(C)CC3)CC2)ccc1Nc1ncc(Cl)c(Nc2ccccc2P(C)(C)=O)n1 [brigatinib],effect of mild or moderate renal impairment on brigatinib exposure / PK,[1],not associated with clinically meaningful effects on brigatinib PK; also recorded: not found to impact brigatinib exposure
same,contribution of CYP3A4 to metabolism,[2],primarily metabolized
same,dose proportionality / linearity of systemic exposure,[3],dose proportional over the dose range of 60 mg to 240 mg qd; also recorded: dose-linear and time-independent PK
same,geometric mean accumulation ratio after repeat dosing,[3],1.9 to 2.4
same,oral dose excreted unchanged in the urine,[3],approximately 25%
same,median time to reach maximum plasma concentration (Tmax),[3]; postdose,1 to 3 h
same,contribution of 2C8 to metabolism,2C8,minor contribution
same,"24-month PFS, blinded independent review committee-assessed",ALK + NSCLC; ALK inhibitor-naive patients,48%
same,"24-month PFS, investigator-assessed",ALK + NSCLC; ALK inhibitor-naive patients,56%
same,"PFS hazard ratio [95 % CI], blinded independent review committee-assessed",ALK + NSCLC; [9],0.49
same,"PFS hazard ratio [95 % CI], investigator-assessed",ALK + NSCLC; [9],0.43 [0.31–0.61]
same,CL renal,"[4]; Normal Renal Function (n=8), read-out: CLR, Range",27.5 to 63.7 mL/min
same,CL renal,"[4]; Normal Renal Function (n=8), read-out: CLR, renal clearance, mean (SD)",41.5 mL/min
same,CL renal,"[4]; Severe Renal Impairment (n=8), read-out: CLR, Range",5.4 to 13.4 mL/min
same,CL renal,"[4]; Severe Renal Impairment (n=8), read-out: CLR, renal clearance, mean (SD)",9.17 mL/min
same,renal clearance as share of overall clearance of brigatinib,[4]; in vivo,approximately 25%
same,"renal clearance of unbound brigatinib, fold lower",[4]; severe renal impairment compared with normal renal function,approximately five-fold
same,reduction of fraction of dose excreted in urine 0 to 168 h,[4]; severe renal impairment vs normal renal function,approximately 50%
same,"nonrenal clearance, percent lower","[4]; severe renal impairment vs normal renal function, derived from renal clearance share",approximately 50%
same,"Ae0–168, Range",[4]; Normal Renal Function (n=8),11.58 to 21.77 mg
same,"Ae0–168, amount of brigatinib excreted from time zero to 168 hours, mean (SD)",[4]; Normal Renal Function (n=8),16.90 (3.57) mg
same,"Fe0–168, Range",[4]; Normal Renal Function (n=8),12.9–24.2%
same,"Ae0–168, Range",[4]; Severe Renal Impairment (n=7),3.92 to 14.36 mg
same,"Ae0–168, amount of brigatinib excreted from time zero to 168 hours, mean (SD)",[4]; Severe Renal Impairment (n=7),7.58 (3.77) mg
same,"Fe0–168, Range",[4]; Severe Renal Impairment (n=7),4.36–16.0%
same,effect of a high-fat meal on total exposure (AUC),[5],no effect
same,independent review committee-assessed confirmed objective response rate (ORR),[6]; [10],56%
same,median progression-free survival (PFS),[6]; [10],16.7 months
same,confirmed intracranial ORR,[6]; [11],67%
same,median intracranial PFS,[6]; [11],18.4 months
same,administered dose recovered in feces,[7],65%
same,administered dose recovered in urine,[7],25%
same,unchanged brigatinib as share of total radioactivity in feces,[7],41%
same,unchanged brigatinib as share of total radioactivity in urine,[7],86%
same,clinically significant laboratory values or electrocardiogram findings,[8]; all participants,no participant had clinically significant laboratory values or electrocardiogram findings
same,adverse events,[8]; healthy volunteers with normal renal function (n = 8),No healthy volunteers with normal renal function reported adverse events
same,treatment-emergent adverse events,[8]; patients with severe renal impairment (n = 8),Two patients with severe renal impairment reported three treatment-emergent adverse events
